According to US6569881B1, “Substituted benzimidazole, the production thereof and the use thereof as means against parasitic protozoa” (Bayer Aktiengesellschaft, priority 1999, dated 2003):
Several values for one entry are separate records, joined by “and”; a condition that tells them apart may be missing. Equal values may be shown once.

Columns and labels:
Type in all cases: in vivo, chicken chicks
[1] = system: Eimeria acervulina, Eimeria maxima and Eimeria tenella; assay: Cage experiments coccidiosis/chicks, mixed experimental infection
Summary of the method: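 Male chicks aged 8–12 days, raised coccidia-free, were fed compound in feed (ppm) from day −3 to day 8 (9) p.i. and infected via crop tube with about 100,000 E. acervulina, 30,000 E. maxima and 40,000 E. tenella oocysts. Weight gain, mortality, dropping and lesion scores and oocyst counts were combined into an overall % efficacy.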

Eimeria acervulina = assay: Cage experiments coccidiosis/chicks, Eimeria acervulina part of the mixed infection
Summary of the method: (§1)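 Male chicks 8–12 days old, three per cage, given compound in feed (ppm) from day -3 to 8 (9) days post-infection; infected by crop tube with ~100,000 E. acervulina, ~30,000 E. maxima and 40,000 E. tenella sporulated oocysts. Scored by weight gain, mortality, dropping and lesion scores (0–6), McMaster oocyst counts and sporulation.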

Eimeria tenella = assay: Cage experiments coccidiosis/chicks, Eimeria tenella part of the mixed infection
Summary of the method: as §1

Eimeria maxima = assay: Cage experiments coccidiosis/chicks, Eimeria maxima part of the mixed infection
Summary of the method: as §1

In the case of `CO[C@@H]1[C@@H](OC)[C@H](C)[C@@](O)(CC(=O)O)O[C@H]1[C@H](C)[C@H]1O[C@@]2(CC[C@@](C)([C@H]3CC[C@@](C)([C@@H]4O[C@@H]([C@H]5O[C@](C)(O)[C@H](C)C[C@@H]5C)C[C@@H]4O[C@@H]4C[C@H](OC)[C@@H](OC)[C@H](C)O4)O3)O2)C[C@H](O)[C@H]1C` [MAD, Maduramicin, reference compound], the “% efficacy tot.” value ([1]; 1 ppm in feed) is reported as 38%, the mortality % ([1]; 1 ppm in feed) is reported as 0% and the “mortality n (died/employed)” value ([1]; 1 ppm in feed) is reported as 0/3. The “weight % of not inf. control” value ([1]; 1 ppm in feed) was 77% and 56%, the lesion score ([1]; 1 ppm in feed, grade 0 to 6) was 5 and 6 and the “% efficacy tot.” value ([1]; 2 ppm in feed) was 55% and 32%. The mortality % ([1]; 2 ppm in feed) was 0%, the “mortality n (died/employed)” value ([1]; 2 ppm in feed) was 0/3 and the “weight % of not inf. control” value ([1]; 2 ppm in feed) was 74% and 60%. For the same compound, the lesion score ([1]; 2 ppm in feed, grade 0 to 6) was 3 and 6, the “% efficacy tot.” value ([1]; 3 ppm in feed) was 61% and 93% and the “mortality n (died/employed)” value ([1]; 3 ppm in feed) was 0/3 and 1/3. The “weight % of not inf. control” value ([1]; 3 ppm in feed) was 76% and 92%, the dropping scores ([1]; 3 ppm in feed, grade 0 to 6) was 0 and the lesion score ([1]; 3 ppm in feed, grade 0 to 6) was 1. For the same compound, the “% efficay tot.” value ([1]; MAD 1 ppm) was 7%, the dropping scores ([1]; MAD 1 ppm) was 6 and the lesion score ([1]; MAD 1 ppm) was 6. The mortality % ([1]; MAD 1 ppm) was 0%, the mortality n ([1]; MAD 1 ppm) was 0/3 and the “oocyst in % of inf. control tot.” value ([1]; MAD 1 ppm) was 29 % of inf. control. The “weight % of not inf. control” value ([1]; MAD 1 ppm) was 59 % of not inf. control, the “% efficay tot.” value ([1]; MAD 2 ppm) was 17% and the dropping scores ([1]; MAD 2 ppm) was 6. For the same compound, the lesion score ([1]; MAD 2 ppm) was 5, the mortality % ([1]; MAD 2 ppm) was 0% and the mortality n ([1]; MAD 2 ppm) was 0/3. The “oocyst in % of inf. control tot.” value ([1]; MAD 2 ppm) was 48 % of inf. control, the “weight % of not inf. control” value ([1]; MAD 2 ppm) was 63 % of not inf. control and the “% efficay tot.” value ([1]; MAD 3 ppm) was 60%. For the same compound, the dropping scores ([1]; MAD 3 ppm) was 6, the lesion score ([1]; MAD 3 ppm) was 2.7 and the mortality % ([1]; MAD 3 ppm) was 33%. For the same compound, the mortality n ([1]; MAD 3 ppm) was 0/3, the “oocyst in % of inf. control tot.” value ([1]; MAD 3 ppm) was 9 % of inf. control and the “weight % of not inf. control” value ([1]; MAD 3 ppm) was 90 % of not inf. control. The “oocyst in % of inf. control ac.” value (Eimeria acervulina; 1 ppm in feed) was 60% and >100%, the “oocyst in % of inf. control ac.” value (Eimeria acervulina; MAD 1 ppm) was 39 % of inf. control and the “oocyst in % of inf. control ac.” value (Eimeria acervulina; MAD 2 ppm) was 27 % of inf. control. For the same compound, the “oocyst in % of inf. control ac.” value (Eimeria acervulina; MAD 3 ppm) was 11 % of inf. control, the “oocyst in % of inf. control ten.” value (Eimeria tenella; MAD 1 ppm) was 56 % of inf. control and the “oocyst in % of inf. control ten.” value (Eimeria tenella; MAD 2 ppm) was 82 % of inf. control. The “oocyst in % of inf. control ten.” value (Eimeria tenella; MAD 3 ppm) was 6 % of inf. control, the “oocyst in % of inf. control max.” value (Eimeria maxima; 3 ppm in feed) was 0% and the “oocyst in % of inf. control max.” value (Eimeria maxima; MAD 1 ppm) was 86 % of inf. control. The “oocyst in % of inf. control max.” value (Eimeria maxima; MAD 2 ppm) was >100 % of inf. control and the “oocyst in % of inf. control max.” value (Eimeria maxima; MAD 3 ppm) was 14 % of inf. control.
